Reference: US12139508B2, “Steroid derivative regulators, method for preparing the same, and uses thereof” (JIANGSU HANSOH PHARMACEUTICAL GROUP CO., LTD., priority 2018, dated 2024)
Read-outs that look alike come from different tables or passages of the source.

Legend:
GABA-A receptor = assay: 35S-TBPS binding assay (GABAA receptor binding ability test); design: species or system Sprague-Dawley rat; conditions: rat cerebral cortex cell membrane, 5 μM GABA, 2 nM 35S-TBPS; read-out: 35S-TBPS bindng test: IC50 on inhibiting the TBPS binding activity
Procedure: 1.2 Experimental Procedures 1.2.1 Extraction of Cerebral Cortex Cell Membrane:
1. The cerebral cortex of male Sprague-Dawley rat was isolated.
2. A pre-chilled 0.32 M sucrose solution (one tablet of protease inhibitor was added per 100 ml) was added to the cerebral cortex (the volume of sucrose solution was 10 times the volume of the cerebral cortex). The mixture was crushed with a 50 mL glass tissue homogenizer in batches and mixed well.
3. The mixture was centrifuged at 1500 g, 4° C. for 10 minutes, and the supernatant was collected.
4. The mixture was centrifuged at 20000 g, 4° C. for 30 minutes, and the supernatant was discarded.
5. The precipitate was resuspended with the pre-chilled phosphate buffer saline (PBS) (one tablet of protease inhibitor was added per 100 ml). An average of 4 ml of PBS was added per rat, and the mixture was mixed well by a glass tissue homogenizer.
6. The mixture was centrifuged at 10000 g, 4° C. for 10 minutes, and the supernatant was discarded.
7. Steps 5 and 6 were repeated three times.
8. Finally, the precipitate was resuspended with 4 volumes of PBS. The resulting solution was dispensed, frozen in liquid nitrogen, and stored at −80° C.
9. The protein concentration was measured by the bicinchoninic acid (BCA) method.
1.2.2 ^35S-TBPS Binding Assay
1. 230 μL of PBS was added to each well of a well plate with 1.1 ml volume.
2. 60 μL of the cerebral cortex cell membrane (5 μg/μL) solution was added to each well, and the mixture was mixed well.
3. The test compound (3 μL per well) was added, and the plate was incubated at 25° C. for 5 minutes. The DMSO concentration was 1%. The initial compound concentration was 1 μM, and a 3-fold dilution in gradient was carried out to obtain a total of 8 gradients and 2 replicates. 1% DMSO was used as a negative control, and 10 μM P026-2 was used as a positive control.
4. GABA was added at a final concentration of 5 μM, and incubated at 25° C. for 5 minutes. 1 mM GABA solution was formulated, and 1.5 μL of the solution was added to each well.
5. ^35S-TBPS was added at a final concentration of 2 nM. The concentration of isotope mother solution was 9.7 μM. After dilution with PBS for 100 times, 6 μL of the diluted isotope solution was added to each well.
6. The plate was incubated at 4° C. for 20 hours.
7. The FilterMate GF/C plate was pre-treated with 0.5% PEI, and incubated at 4° C. for 1 hour.
8. The FilterMate GF/C plate was washed with Universal Harvester twice, 50 ml PBS each time.
9. The reaction solution was transferred to the GF/C plate, and each well was washed 4 times with 900 μL of PBS.
10. The washed GF/C plate was placed at 55° C. and dried for 10 minutes.
11. 40 μL of scintillation solution was added to each well, and the CPM value was read with TopCount.
1.2.3 Experimental Data Processing Method:
In the experiment, the CPM (counts per minute) value was read with TopCount. According to the readings of the High control (DMSO) and the Low control ([…] of the positive compound) experimental groups, the […] inhibition was calculated based on the following formula: % Inhibition=100×(CPMHigh control−CPMSample)/(CPMHigh control−CPMLow control)
The IC50 of the compound was calculated according to the following 4-parameter nonlinear logic formula: Y=Bottom+(Top−Bottom)/(1+10^((Log IC50−X)*Hill Slope)),
wherein: • X represents the log of compound concentration, • Y represents the 0 Inhibition.
The effect of the compound of the present invention on the TBPS binding activity was determined by the above test, and the measured IC50 values are shown in Table 1.

[1] = Pharmacokinetic assay in Balb/c mice (plasma and brain tissue); format: in vivo; conditions: mouse, po, 5 mg/kg p.o., male Balb/c mice; for AUC(0-t): read-out: Area under curve AUC0-t; for AUC(0-inf): read-out: Area under curve AUC0-∞; for half-life: read-out: Half-life t1/2 (converted); for MRT: read-out: Mean residence time MRT; for Tmax: read-out: Peak time tmax; for Cmax: read-out: Plasma concentration Cmax
Procedure: Balb/c mice were used as test animals. The pharmacokinetic behavior in mice (plasma and brain tissue) of the compounds of Examples 2, 3, 5, 6, 9, 13, 59, 60, 61, 63, 71-74, 81, 103, 130, 134, 135, 137, 138, 140, 141, 143, 145 and 146 orally administered at a dose of 5 mg/kg was studied.
Each group had 24 male Balb/c mice. After an overnight fast, Balb/c mice were administered p.o. with the test compound at an administration dose of 5 mg/kg and an administration volume of 10 mL/kg.
0.2 ml of blood was taken from the heart before administration and at 0, 0.5, 1, 2, 4, 6, 8 and 24 hours after administration. The samples were stored in EDTA-K2 tubes, and centrifuged for 6 minutes at 4° C., 6000 rpm to separate the plasma. The plasma samples were stored at −80° C. The mice were sacrificed with CO2, and the whole brain tissue was taken out, weighed, placed in a 2 mL centrifuge tube and stored at −80° C.
1) 160 μL of acetonitrile was added to 40 μL of the plasma sample for precipitation, and then the mixture was centrifuged for 5-20 minutes at 3500×g.
2) 90 μL of acetonitrile containing the internal standard (100 ng/mL) was added to 30 μL of the plasma and brain homogenate samples for precipitation, and then the mixture was centrifuged for 8 minutes at 13000 rpm.
3) 70 μL of the treated supernatant was taken and added to 70 μL of water, and mixed by vortex for 10 minutes. 20 μL of the mixture was taken to analyze the concentration of the test compound by LC/MS/MS. LC/MS/MS analysis instrument: AB Sciex API 4000 Qtrap.
• Liquid chromatography condition: Shimadzu LC-20AD pump. • Chromatographic column: Agilent ZORBAX™ XDB-C18 (50×2.1 mm, 3.5 μm) (note: Aglient ZORBAX™ is a kind of column used in the reverse HPLC); • Mobile phase: Eluent A was 0.10% formic acid in water, and Eluent B was acetonitrile. • Flow rate: 0.4 mL/min • Elution time: 0-4.0 minutes, the eluent is as follows:
The main parameters of pharmacokinetics were calculated by WinNonlin 6.1.

## C[C@@H]1C[C@H](C(=O)Cn2ccc(C(F)(F)F)n2)[C@@]2(C)CC[C@H]3[C@@H](CC[C@@H]4C[C@](C)(O)CC[C@@H]43)[C@H]12 [Example 131, 1-((3R,5R,8R,9R,10S,13S,14S,15R,17S)-3-Hydroxy-3,13,15-trimethylhexadecahydro-1H-cyclopenta[a]phenanthren-17-yl)-2-(3-(trifluoromethyl)-1H-pyrazol-1-yl)ethan-1-one]
GABA-A receptor
  IC50: 0.008 µM

## C[C@@]1(O)CC[C@H]2[C@H](CC[C@@H]3[C@@H]2CC[C@@]2(C)[C@H]3[C@@H]3C[C@@H]3[C@@H]2C(=O)Cn2nc3ccc(F)cc3n2)C1 [Example 92, 2-(5-Fluoro-2H-benzo[d][1,2,3]triazol-2-yl)-1-((2R,4aS,4bR,6aS,7S,7aS,8aR,8bR,8cR,10aR)-2-hydroxy-2,6a-dimethyloctadecahydrocyclopropa[4,5]cyclopenta[1,2-a]phenanthren-7-yl)ethan-1-one]
GABA-A receptor
  IC50: 0.0108 µM

## COc1ccc2nnn(CC(=O)[C@H]3[C@H]4C[C@H]4[C@H]4[C@@H]5CC[C@@H]6C[C@](C)(O)CC[C@@H]6[C@H]5CC[C@@]43C)c2c1 [Example 54A, 1-((2R,4aS,4bR,6aS,7S,7aS,8aR,8bR,8cR,10aR)-2-Hydroxy-2,6a-dimethyloctadecahydrocyclopropa[4,5]cyclopenta[1,2-a]phenanthren-7-yl)-2-(6-methoxy-1H-benzo[d][1,2,3]triazol-1-yl)ethan-1-one]
GABA-A receptor
  IC50: 0.0118 µM

## C[C@@H]1C[C@H](C(=O)Cn2ccnn2)[C@@]2(C)CC[C@H]3[C@@H](CC[C@@H]4C[C@](C)(O)CC[C@@H]43)[C@H]12 [Example 132, 1-((3R,5R,8R,9R,10S,13S,14S,15R,17S)-3-Hydroxy-3,13,15-trimethylhexadecahydro-1H-cyclopenta[a]phenanthren-17-yl)-2-(1H-1,2,3-triazol-1-yl)ethan-1-one]
GABA-A receptor
  IC50: 0.0246 µM

## Cc1cnn(CC(=O)[C@H]2[C@H]3C[C@H]3[C@H]3[C@@H]4CC[C@@H]5C[C@](C)(O)CC[C@@H]5[C@H]4CC[C@@]32C)c1 [Example 95, 1-((2R,4aS,4bR,6aS,7S,7aS,8aR,8bR,8cR,10aR)-2-Hydroxy-2,6a-dimethyloctadecahydrocyclopropa[4,5]cyclopenta[1,2-a]phenanthren-7-yl)-2-(4-methyl-1H-pyrazol-1-yl)ethan-1-one]
GABA-A receptor
  IC50: 0.0341 µM

## C[C@@]1(O)CC[C@H]2[C@H](CC[C@@H]3[C@@H]2CC[C@@]2(C)[C@H]3[C@@H]3C[C@@H]3[C@@H]2C(=O)Cn2nnc3cc(F)ccc32)C1 [Example 93A, 2-(5-Fluoro-1H-benzo[d][1,2,3]triazol-1-yl)-1-((2R,4aS,4bR,6aS,7S,7aS,8aR,8bR,8cR,10aR)-2-hydroxy-2,6a-dimethyloctadecahydrocyclopropa[4,5]cyclopenta[1,2-a]phenanthren-7-yl)ethan-1-one]
GABA-A receptor
  IC50: 0.003 µM

## C[C@@]1(O)CC[C@H]2[C@H](CC[C@@H]3[C@@H]2CC[C@@]2(C)[C@H]3[C@@H]3C[C@@H]3[C@@H]2C(=O)Cn2cc(C#N)c(C3CC3)n2)C1 [Example 33, 3-Cyclopropyl-1-(2-((2R,4aS,4bR,6aS,7S,7aS,8aR,8bR,8cR,10aR)-2-hydroxy-2,6a-dimethyloctadecahydrocyclopropa[4,5]cyclopenta[1,2-a]phenanthren-7-yl)-2-oxoethyl)-1H-pyrazole-4-carbonitrile]
GABA-A receptor
  IC50: 0.0183 µM

## CSc1cnn(CC(=O)[C@H]2[C@H]3C[C@H]3[C@H]3[C@@H]4CC[C@@H]5C[C@](C)(O)CC[C@@H]5[C@H]4CC[C@@]32C)c1 [Example 122, 1-((2R,4aS,4bR,6aS,7S,7aS,8aR,8bR,8cR,10aR)-2-Hydroxy-2,6a-dimethyloctadecahydrocyclopropa[4,5]cyclopenta[1,2-a]phenanthren-7-yl)-2-(4-(methylthio)-1H-pyrazol-1-yl)ethan-1-one]
GABA-A receptor
  IC50: 0.046 µM

## C[C@@]1(O)CC[C@H]2[C@H](CC[C@@H]3[C@@H]2CC[C@@]2(C)[C@H]3[C@@H]3C[C@@H]3[C@@H]2C(=O)Cn2cc([N+](=O)[O-])cn2)C1 [Example 103, 1-((2R,4aS,4bR,6aS,7S,7aS,8aR,8bR,8cR,10aR)-2-Hydroxy-2,6a-dimethyloctadecahydrocyclopropa[4,5]cyclopenta[1,2-a]phenanthren-7-yl)-2-(4-nitro-1H-pyrazol-1-yl)ethan-1-one]
[1]; brain tissue
  AUC(0-t): 1.68 µg·h/mL
  AUC(0-inf): 1.71 µg·h/mL
  half-life: 1.12 h
  MRT: 2.07 h
  Tmax: 1 h
  Cmax: 0.626 µg/mL
[1]; plasma
  AUC(0-t): 1.03 µg·h/mL
  AUC(0-inf): 1.06 µg·h/mL
  half-life: 1.19 h
  MRT: 2.12 h
  Tmax: 1 h
  Cmax: 0.386 µg/mL

## CC[C@@H]1C[C@H](C(=O)Cn2cc(C#N)cn2)[C@@]2(C)CC[C@H]3[C@@H](CC[C@@H]4C[C@](C)(O)CC[C@@H]43)[C@H]12 [Example 81, 1-(2-((3R,5R,8R,9R,10S,13S,14S,15R,17S)-15-Ethyl-3-hydroxy-3,13-dimethylhexadecahydro-1H-cyclopenta[a]phenanthren-17-yl)-2-oxoethyl)-1H-pyrazole-4-carbonitrile]
[1]; brain tissue
  AUC(0-t): 1.44 µg·h/mL
  AUC(0-inf): 2.23 µg·h/mL
  half-life: 5.59 h
  MRT: 7.97 h
  Tmax: 1 h
  Cmax: 0.296 µg/mL
[1]; plasma
  AUC(0-t): 4.64 µg·h/mL
  AUC(0-inf): 5.92 µg·h/mL
  half-life: 2.64 h
  MRT: 4.96 h
  Tmax: 1 h
  Cmax: 1.15 µg/mL
